Active and inactive are the calls of the source. The calls are words filed in the database; no cut-off is given here.
Legend:
Coagulation factor V [1] = molecular target: T1, Coagulation factor V (Homo sapiens, UniProt P12259); experiment: Inhibition of factor 5a-mediated prothrombin activation in human plasma at 100 uM by prothrombinase assay
[2] = molecular target: Coagulation factor X (Homo sapiens) (UniProt P00742); experiment: Inhibition of factor 10a in human plasma; format: cell-free
Coagulation factor V [3] = molecular target: T1, Coagulation factor V; experiment: Inhibition of human factor 5a light chain binding to immobilized phospholipid by surface plasmon resonance assay
Coagulation factor V [4] = molecular target: T1, Coagulation factor V; experiment: Inhibition of factor 5a-mediated prothrombin activation in human plasma by prothrombinase assay; format: cell-free
Coagulation factor V [5] = molecular target: T1, Coagulation factor V; experiment: Inhibition of human recombinant factor 5a C2 domain binding to immobilized phospholipid by surface plasmon resonance assay
[6] = molecular target: Prothrombin (Homo sapiens) (UniProt P00734); experiment: Inhibition of calcium-dependent membrane binding activity of prothrombin
[7] = molecular target: Coagulation factor X (Homo sapiens) (UniProt P00742); experiment: Inhibition of calcium-dependent membrane binding activity of factor 10a
Coagulation factor V [8] = molecular target: T1, Coagulation factor V; experiment: Inhibition of factor 5a-mediated prothrombin activation in human plasma at 50 uM in presence of 40 mg/ml albumin; format: cell-free; parameters: scale not given: the % may be the effect or the level left
Coagulation factor VIII = Coagulation factor VIII (Homo sapiens, UniProt P00451); experiment: Inhibition of human factor 8 binding to immobilized phospholipid by surface plasmon resonance assay
Coagulation factor VIII, sequence (P00451 20-759 limits assumed): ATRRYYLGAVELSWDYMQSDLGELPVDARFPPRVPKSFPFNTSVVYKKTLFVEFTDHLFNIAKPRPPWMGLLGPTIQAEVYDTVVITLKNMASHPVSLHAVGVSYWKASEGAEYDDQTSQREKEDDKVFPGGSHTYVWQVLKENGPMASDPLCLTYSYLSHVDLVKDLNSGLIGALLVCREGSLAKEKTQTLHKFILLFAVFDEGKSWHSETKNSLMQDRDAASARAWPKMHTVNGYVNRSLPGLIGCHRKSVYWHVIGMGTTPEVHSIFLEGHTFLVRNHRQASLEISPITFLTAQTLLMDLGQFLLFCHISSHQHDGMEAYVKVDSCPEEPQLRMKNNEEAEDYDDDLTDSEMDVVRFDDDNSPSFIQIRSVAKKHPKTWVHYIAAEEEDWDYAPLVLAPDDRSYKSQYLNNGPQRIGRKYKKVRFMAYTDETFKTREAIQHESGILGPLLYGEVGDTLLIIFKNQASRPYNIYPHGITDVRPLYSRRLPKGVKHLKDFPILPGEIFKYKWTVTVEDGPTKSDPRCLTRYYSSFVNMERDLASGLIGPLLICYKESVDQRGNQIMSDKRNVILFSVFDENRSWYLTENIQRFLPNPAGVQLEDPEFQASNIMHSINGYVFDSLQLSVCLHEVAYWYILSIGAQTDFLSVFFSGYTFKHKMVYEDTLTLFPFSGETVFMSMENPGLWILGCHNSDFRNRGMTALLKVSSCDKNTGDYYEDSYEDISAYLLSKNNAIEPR
Coagulation factor VIII, sequence (P00451 1668-2351 limits assumed): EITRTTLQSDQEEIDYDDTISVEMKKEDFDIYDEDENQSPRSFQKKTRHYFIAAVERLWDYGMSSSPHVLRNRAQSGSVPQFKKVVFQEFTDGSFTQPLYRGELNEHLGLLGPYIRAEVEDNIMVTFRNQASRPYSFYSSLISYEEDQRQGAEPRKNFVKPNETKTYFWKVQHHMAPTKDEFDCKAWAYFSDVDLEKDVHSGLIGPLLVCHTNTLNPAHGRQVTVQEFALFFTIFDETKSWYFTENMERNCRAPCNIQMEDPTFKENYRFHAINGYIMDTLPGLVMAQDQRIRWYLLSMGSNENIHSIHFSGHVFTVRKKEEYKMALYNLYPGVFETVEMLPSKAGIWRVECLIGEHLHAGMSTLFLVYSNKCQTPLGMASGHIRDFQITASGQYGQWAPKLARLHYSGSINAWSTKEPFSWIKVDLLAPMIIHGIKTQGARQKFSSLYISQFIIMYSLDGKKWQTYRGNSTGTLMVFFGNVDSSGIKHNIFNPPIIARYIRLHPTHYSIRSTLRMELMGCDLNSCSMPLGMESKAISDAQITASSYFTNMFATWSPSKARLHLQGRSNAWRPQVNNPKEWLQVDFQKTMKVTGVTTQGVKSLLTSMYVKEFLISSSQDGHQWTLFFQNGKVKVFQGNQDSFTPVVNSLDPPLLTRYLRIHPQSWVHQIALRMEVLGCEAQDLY

Coagulation factor X (Homo sapiens), sequence (P00742 41-179 limits assumed): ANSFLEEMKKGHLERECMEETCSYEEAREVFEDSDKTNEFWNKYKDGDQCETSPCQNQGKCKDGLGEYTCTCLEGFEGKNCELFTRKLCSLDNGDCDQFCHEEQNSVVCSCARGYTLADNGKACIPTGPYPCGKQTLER
Coagulation factor X (Homo sapiens), sequence (P00742 235-488 limits assumed): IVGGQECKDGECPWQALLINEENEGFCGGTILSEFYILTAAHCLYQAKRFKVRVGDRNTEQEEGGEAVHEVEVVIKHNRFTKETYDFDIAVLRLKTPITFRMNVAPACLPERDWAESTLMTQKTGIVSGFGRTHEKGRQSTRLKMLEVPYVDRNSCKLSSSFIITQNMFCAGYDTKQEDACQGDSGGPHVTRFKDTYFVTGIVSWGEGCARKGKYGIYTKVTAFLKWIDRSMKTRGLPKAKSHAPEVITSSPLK
T1 sequence (P12259 29-737 limits assumed): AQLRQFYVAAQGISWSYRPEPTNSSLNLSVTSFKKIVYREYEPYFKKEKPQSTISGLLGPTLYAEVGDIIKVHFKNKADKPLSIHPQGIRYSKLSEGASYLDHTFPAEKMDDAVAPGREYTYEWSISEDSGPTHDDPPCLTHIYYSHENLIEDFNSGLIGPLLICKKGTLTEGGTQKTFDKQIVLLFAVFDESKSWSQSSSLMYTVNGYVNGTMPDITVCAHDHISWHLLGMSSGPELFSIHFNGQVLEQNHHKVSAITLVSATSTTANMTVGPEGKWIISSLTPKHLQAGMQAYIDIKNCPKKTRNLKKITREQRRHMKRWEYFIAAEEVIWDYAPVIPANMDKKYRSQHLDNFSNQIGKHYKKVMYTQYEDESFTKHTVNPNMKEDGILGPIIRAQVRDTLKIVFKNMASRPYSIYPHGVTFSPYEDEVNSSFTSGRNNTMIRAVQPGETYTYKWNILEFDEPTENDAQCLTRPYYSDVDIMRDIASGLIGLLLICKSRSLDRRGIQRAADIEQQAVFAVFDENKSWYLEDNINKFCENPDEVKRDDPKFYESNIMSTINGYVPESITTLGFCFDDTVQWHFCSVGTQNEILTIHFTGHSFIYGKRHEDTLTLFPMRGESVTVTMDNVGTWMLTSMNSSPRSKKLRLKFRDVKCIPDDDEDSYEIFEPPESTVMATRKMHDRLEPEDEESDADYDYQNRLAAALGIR
T1 sequence (P12259 1574-2224 limits assumed): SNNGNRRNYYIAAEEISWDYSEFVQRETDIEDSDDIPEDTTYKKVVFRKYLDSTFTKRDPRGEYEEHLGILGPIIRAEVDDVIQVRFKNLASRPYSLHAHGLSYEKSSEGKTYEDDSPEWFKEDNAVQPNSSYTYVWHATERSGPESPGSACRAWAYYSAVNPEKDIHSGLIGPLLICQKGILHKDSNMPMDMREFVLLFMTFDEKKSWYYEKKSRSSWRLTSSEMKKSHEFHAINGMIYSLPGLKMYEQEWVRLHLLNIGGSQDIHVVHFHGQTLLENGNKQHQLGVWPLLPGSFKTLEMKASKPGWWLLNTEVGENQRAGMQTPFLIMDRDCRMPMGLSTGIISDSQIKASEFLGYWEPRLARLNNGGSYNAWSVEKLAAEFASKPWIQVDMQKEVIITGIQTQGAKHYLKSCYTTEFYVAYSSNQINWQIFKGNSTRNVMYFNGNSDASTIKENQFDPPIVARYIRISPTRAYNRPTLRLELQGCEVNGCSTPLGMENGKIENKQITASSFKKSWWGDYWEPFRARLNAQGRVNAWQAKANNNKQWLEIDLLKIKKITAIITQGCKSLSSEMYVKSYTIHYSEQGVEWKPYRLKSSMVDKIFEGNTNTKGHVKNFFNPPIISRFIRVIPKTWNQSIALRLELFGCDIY

| SMILES | inhibition (Coagulation factor V [1]) [%] | Activity [2] | IC50 (Coagulation factor V [3]) [µM] | IC50 (Coagulation factor V [4]) [µM] | IC50 (Coagulation factor V [5]) [µM] | Activity [6] | Activity [7] | Activity (Coagulation factor V [8]) [%] | IC50 (Coagulation factor VIII) [µM] |
| --- | --- | --- | --- | --- | --- | --- | --- | --- | --- |
| CCOc1cc(/C=C2/NC(=O)N(Cc3ccccc3F)C2=O)ccc1OCc1ccc(C(=O)O)cc1 | > 99 | inactive | 2.5 | 18.6 | 3.51 | inactive | inactive | 25 | – |
| CC1=NN(c2ccc(Br)cc2)C(=O)/C1=C/c1ccc(-c2cccc(C(=O)O)c2)o1 | > 99 | inactive | – | 1.81 | – | – | inactive | – | – |
| Cc1cc(-c2ccc(/C=C3/C(=O)NN(c4cccc(Cl)c4)C3=O)o2)c([N+](=O)[O-])cc1C | > 99 | inactive | 8.55 | 8.95 | 7.4 | inactive | inactive | – | – |
| COc1cc([N+](=O)[O-])ccc1-c1ccc(/C=C2\C(=O)NC(=O)N(c3ccc4c(c3)OCO4)C2=O)o1 | > 99 | inactive | 4.8 | 62.9 | 5.53 | inactive | inactive | – | – |
| CC(C)NC[C@@H](O)Cn1c2c(c3ccccc31)CCc1c-2cnn1-c1ccccc1 | > 99 | inactive | – | 3.8 | – | – | inactive | – | – |
| CC1=NN(c2cccc(C(=O)O)c2)C(=O)/C1=C\c1ccc(-c2ccc([N+](=O)[O-])cc2)o1 | > 99 | inactive | 8.56 | 9.19 | 6.71 | inactive | inactive | – | – |
| O=C(COc1ccc(Cl)cc1Cl)Nc1ccc(C(=O)Nc2ccccc2C(=O)O)cc1 | > 99 | inactive | 14.1 | 40.6 | 16.4 | inactive | inactive | – | – |
| N=c1n(CCN2CCCCC2)c2ccccc2n1CC(O)COc1ccc(Cl)cc1Cl (single isomer, unassigned) | > 99 | inactive | 15.7 | 32.4 | 14 | inactive | – | – | 7.8 |
| O=C1NC(=O)N(c2ccccc2F)C(=O)/C1=C\c1cc(Cl)ccc1OCc1ccc([N+](=O)[O-])cc1 | > 99 | inactive | 14.1 | 38 | 21.9 | inactive | – | – | 8.9 |
